The source made the active and inactive calls. The rule behind the calls is not given here.
System: CCRIS mutagenicity, Ames/micronucleus/aberration tests
Assay: CCRIS mutagenicity studies
[1] = Test System: AMES SALMONELLA TYPHIMURIUM, Strain/Indicator: TA98, Metabolic Activation: NONE, Method: PREINCUBATION
[2] = Test System: AMES SALMONELLA TYPHIMURIUM, Strain/Indicator: TA98, Metabolic Activation: RAT, LIVER, S-9, AROCLOR 1254, Method: PREINCUBATION
[3] = Test System: AMES SALMONELLA TYPHIMURIUM, Strain/Indicator: TA100, Metabolic Activation: NONE, Method: PREINCUBATION
[4] = Test System: AMES SALMONELLA TYPHIMURIUM, Strain/Indicator: TA100, Metabolic Activation: NONE, Method: STANDARD PLATE
[5] = Test System: AMES SALMONELLA TYPHIMURIUM, Strain/Indicator: TA100, Metabolic Activation: RAT, LIVER, S-9, AROCLOR 1254, Method: PREINCUBATION
[6] = Test System: AMES SALMONELLA TYPHIMURIUM, Strain/Indicator: TA100, Metabolic Activation: RAT, LIVER, S-9, AROCLOR 1254, Method: STANDARD PLATE
[7] = Test System: AMES SALMONELLA TYPHIMURIUM, Strain/Indicator: TA1535, Metabolic Activation: NONE, Method: PREINCUBATION
[8] = Test System: AMES SALMONELLA TYPHIMURIUM, Strain/Indicator: TA1537, Metabolic Activation: NONE, Method: PREINCUBATION

SMILES: O=C(O)/C=C/c1ccc([N+](=O)[O-])cc1
- mutagenic call (Test System: AMES SALMONELLA TYPHIMURIUM, Strain/Indicator: TA98(1,8-DNP6), Metabolic Activation: NONE, Method: PREINCUBATION): active; positive
- mutagenic call (Test System: AMES SALMONELLA TYPHIMURIUM, Strain/Indicator: TA98(1,8-DNP6), Metabolic Activation: RAT, LIVER, S-9, AROCLOR 1254, Method: PREINCUBATION): active; positive
- mutagenic call (Test System: AMES SALMONELLA TYPHIMURIUM, Strain/Indicator: TA98(NR), Metabolic Activation: NONE, Method: PREINCUBATION): active; positive
- mutagenic call (Test System: AMES SALMONELLA TYPHIMURIUM, Strain/Indicator: TA98(NR), Metabolic Activation: RAT, LIVER, S-9, AROCLOR 1254, Method: PREINCUBATION): active; positive
- mutagenic call [1]: active; positive
- mutagenic call (Test System: AMES SALMONELLA TYPHIMURIUM, Strain/Indicator: TA98, Metabolic Activation: NONE, Method: STANDARD PLATE): active; positive
- mutagenic call [2]: active; positive
- mutagenic call (Test System: AMES SALMONELLA TYPHIMURIUM, Strain/Indicator: TA98, Metabolic Activation: RAT, LIVER, S-9, AROCLOR 1254, Method: STANDARD PLATE): active; positive
- mutagenic call (Test System: AMES SALMONELLA TYPHIMURIUM, Strain/Indicator: TA100(1,8-DNP6), Metabolic Activation: NONE, Method: PREINCUBATION): active; positive
- mutagenic call (Test System: AMES SALMONELLA TYPHIMURIUM, Strain/Indicator: TA100(1,8-DNP6), Metabolic Activation: RAT, LIVER, S-9, AROCLOR 1254, Method: PREINCUBATION): active; positive
- mutagenic call (Test System: AMES SALMONELLA TYPHIMURIUM, Strain/Indicator: TA100(NR), Metabolic Activation: NONE, Method: PREINCUBATION): active; positive
- mutagenic call (Test System: AMES SALMONELLA TYPHIMURIUM, Strain/Indicator: TA100(NR), Metabolic Activation: RAT, LIVER, S-9, AROCLOR 1254, Method: PREINCUBATION): active; positive
- mutagenic call [3]: active; positive
- mutagenic call [4]: active; positive
- mutagenic call [5]: active; positive
- mutagenic call [6]: active; positive
- mutagenic call [7]: active; positive
- mutagenic call [8]: active; positive
- mutagenic call (Test System: AMES SALMONELLA TYPHIMURIUM, Strain/Indicator: TA1538, Metabolic Activation: NONE, Method: PREINCUBATION): active; positive

SMILES: COC(=O)[C@H](C)CN=[N+]=[N-]
- mutagenic call (Test System: AMES SALMONELLA TYPHIMURIUM, Strain/Indicator: TA100, Metabolic Activation: RAT, LIVER, S-9, PCB, Method: PREINCUBATION): active; positive

SMILES: O=C(OCCBr)[C@@H](O)[C@H](O)C(=O)OCCBr
- mutagenic call [4]: active; positive
- mutagenic call [6]: active; positive

SMILES: Cc1cccc2cc3c(ccc4ccccc43)cc12
- mutagenic call (Test System: AMES SALMONELLA TYPHIMURIUM, Strain/Indicator: TA100, Metabolic Activation: RAT, INTACT HEPATOCYTES, AROCLOR 1254, Method: PREINCUBATION): active; positive
- mutagenic call (Test System: AMES SALMONELLA TYPHIMURIUM, Strain/Indicator: TA100, Metabolic Activation: RAT, NADPH-FORTIFIED HOMOGENIZED HEPATOCYTES, AROCLOR 1254, Method: PREINCUBATION): active; positive
- mutagenic call (Test System: AMES SALMONELLA TYPHIMURIUM, Strain/Indicator: TA100, Metabolic Activation: RAT, SONICATED HEPATOCYTES, AROCLOR 1254, Method: PREINCUBATION): active; positive

SMILES: CC(C)(C)NC(=O)C=Cc1ccc([N+](=O)[O-])o1
- mutagenic call [1]: active; positive

SMILES: C=CCOCC1CO1 (configuration not stated)
- mutagenic call (End Point: IN VITRO CHROMOSOMAL ABERRATIONS, Test System: CHL CELLS, Metabolic Activation: NONE): active; positive (structural changes)
- mutagenic call (End Point: IN VITRO CHROMOSOMAL ABERRATIONS, Test System: CHL CELLS, Metabolic Activation: RAT, LIVER, S-9, SODIUM PHENOBARBITAL AND 5,6-BENZOFLAVONE): active; positive (structural changes
- mutagenic call (Test System: AMES SALMONELLA TYPHIMURIUM, Strain/Indicator: TA98, Metabolic Activation: HAMSTER, LIVER, S-9, AROCLOR 1254, Method: PREINCUBATION): inactive; negative
- mutagenic call [1]: inactive; negative
- mutagenic call [2]: inactive; negative
- mutagenic call (Test System: AMES SALMONELLA TYPHIMURIUM, Strain/Indicator: TA100, Metabolic Activation: HAMSTER, LIVER, S-9, AROCLOR 1254, Method: PREINCUBATION): active; positive
- mutagenic call [3]: active; positive
- mutagenic call [5]: active; positive
- mutagenic call (Test System: AMES SALMONELLA TYPHIMURIUM, Strain/Indicator: TA1535, Metabolic Activation: HAMSTER, LIVER, S-9, AROCLOR 1254, Method: PREINCUBATION): active; positive
- mutagenic call [7]: active; positive
- mutagenic call (Test System: AMES SALMONELLA TYPHIMURIUM, Strain/Indicator: TA1535, Metabolic Activation: RAT, LIVER, S-9, AROCLOR 1254, Method: PREINCUBATION): active; positive
- mutagenic call (Test System: AMES SALMONELLA TYPHIMURIUM, Strain/Indicator: TA1537, Metabolic Activation: HAMSTER, LIVER, S-9, AROCLOR 1254, Method: PREINCUBATION): inactive; negative
- mutagenic call [8]: inactive; negative
- mutagenic call (Test System: AMES SALMONELLA TYPHIMURIUM, Strain/Indicator: TA1537, Metabolic Activation: RAT, LIVER, S-9, AROCLOR 1254, Method: PREINCUBATION): inactive; negative

SMILES: FC(F)(F)I
- mutagenic call (Test System: AMES SALMONELLA TYPHIMURIUM, Strain/Indicator: TA98, Metabolic Activation: NONE, Method: DESICCATOR): active; positive
- mutagenic call (Test System: AMES SALMONELLA TYPHIMURIUM, Strain/Indicator: TA98, Metabolic Activation: RAT, LIVER, S-9, AROCLOR 1254, Method: DESICCATOR): active; positive
- mutagenic call (Test System: AMES SALMONELLA TYPHIMURIUM, Strain/Indicator: TA100, Metabolic Activation: NONE, Method: DESICCATOR): active; positive
- mutagenic call (Test System: AMES SALMONELLA TYPHIMURIUM, Strain/Indicator: TA100, Metabolic Activation: RAT, LIVER, S-9, AROCLOR 1254, Method: DESICCATOR): active; positive
- mutagenic call (Test System: AMES SALMONELLA TYPHIMURIUM, Strain/Indicator: TA1535, Metabolic Activation: NONE, Method: DESICCATOR): active; positive
- mutagenic call (Test System: AMES SALMONELLA TYPHIMURIUM, Strain/Indicator: TA1535, Metabolic Activation: RAT, LIVER, S-9, AROCLOR 1254, Method: DESICCATOR): active; positive
- mutagenic call (Test System: AMES SALMONELLA TYPHIMURIUM, Strain/Indicator: TA1537, Metabolic Activation: NONE, Method: DESICCATOR): active; positive
- mutagenic call (Test System: AMES SALMONELLA TYPHIMURIUM, Strain/Indicator: TA1537, Metabolic Activation: RAT, LIVER, S-9, AROCLOR 1254, Method: DESICCATOR): active; positive
- mutagenic call (Test System: AMES SALMONELLA TYPHIMURIUM, Strain/Indicator: TA1538, Metabolic Activation: NONE, Method: DESICCATOR): inactive; negative
- mutagenic call (Test System: AMES SALMONELLA TYPHIMURIUM, Strain/Indicator: TA1538, Metabolic Activation: RAT, LIVER, S-9, AROCLOR 1254, Method: DESICCATOR): inactive; negative
- mutagenic call (Test System: MOUSE LYMPHOMA, Strain/Indicator: L5178Y (TK+/TK-), Metabolic Activation: NONE, Method: SUSPENSION/PLATE): inactive; negative
- mutagenic call (Test System: MOUSE LYMPHOMA, Strain/Indicator: L5178Y (TK+/TK-), Metabolic Activation: RAT, LIVER, S-9, AROCLOR 1254, Method: SUSPENSION/PLATE): inactive; negative
